According to US20070060639A1, “Compositions and methods for intranasal delivery of tricyclic cannabinoids” (University of Kentucky, priority 2005, published 2007):
Read-outs that look alike come from different tables or passages of the source.

Legend:
[1] = rat; for F: F = (AUCIN × DoseIV)/(AUCIV × DoseIN); for concentration at 0 minutes / concentration at 0.5 minutes / concentration at 5 minutes / concentration at 15 minutes / concentration at 30 minutes / concentration at 60 minutes / concentration at 120 minutes / concentration at 160 minutes / concentration at 240 minutes / concentration at 300 minutes / concentration at 360 minutes / concentration at 420 minutes / concentration at 480 minutes: Mean plasma concentration of THC
[2] = intranasally at 1.14-1.33 mg/kg, rat model, period from 15 to 120 minutes after administration; cited from earlier work
[3] = male, Sprague-Dawley, plasma, inhaled or intranasal, 9.84 mg/kg
[4] = male, Sprague-Dawley, plasma, inhaled or intranasal, 9.91 mg/kg
[5] = male, Sprague-Dawley, plasma, iv, 0.99 mg/kg
[6] = male, Sprague-Dawley, plasma, iv, 1 mg/kg, Intravenous (1 mg/kg), propylene glycol, n = 3, rat
[7] = male, Sprague-Dawley, plasma, other: intranasal, 10 mg/kg, Intranasal (10 mg/kg), 90:10 propylene glycol/ethanol, n = 5, rat
[8] = male, Sprague-Dawley, plasma, other: intranasal, 10 mg/kg, Intranasal (10 mg/kg), propylene glycol, n = 3, rat

For `CCCCCc1cc(O)c2c(c1)OC(C)(C)[C@@H]1CCC(C)=C[C@@H]21` [THC, delta-9-tetrahydrocannabinol], the F ([1]; Intranasal (IN), 90:10 propylene glycol/ethanol, 9.91 mg/kg) was 0.138, the F ([1]; Intranasal (IN), propylene glycol, 9.84 mg/kg) was 0.136 and the F ([1]; Intravenous (IV), propylene glycol, 0.99 mg/kg) was 1. For the same compound, the AUC [1, 3] was 428 ng·h/mL, the Cmax [1, 3] was 55 ng/mL and the Tmax [1, 3] was 3 h. It also gave an AUC [1, 4] of 434 ng·h/mL, a Cmax [1, 4] of 75 ng/mL and a Tmax [1, 4] of 2 h. For the same compound, the AUC [1, 5] was 314 ng·h/mL, the Cmax [1, 5] was 693 ng/mL and the Tmax [1, 5] was 0.0083 h. It also gave a concentration at 0 minutes [1, 6] of 0 ng/mL, a concentration at 0.5 minutes [1, 6] of 693 ng/mL and a concentration at 5 minutes [1, 6] of 136 ng/mL. For the same compound, the concentration at 15 minutes [1, 6] was 73 ng/mL, the concentration at 30 minutes [1, 6] was 48 ng/mL and the concentration at 60 minutes [1, 6] was 34 ng/mL. It also gave a concentration at 120 minutes [1, 6] of 24 ng/mL, a concentration at 160 minutes [1, 6] of 23 ng/mL and a concentration at 240 minutes [1, 6] of 21 ng/mL. For the same compound, the concentration at 300 minutes [1, 6] was 18 ng/mL, the concentration at 360 minutes [1, 6] was 22 ng/mL and the concentration at 420 minutes [1, 6] was 25 ng/mL. It also gave a concentration at 480 minutes [1, 6] of 12 ng/mL, a bioavailability ([1]; male, Sprague-Dawley, plasma, other: intranasal, 10 mg/kg) of about 14% and a concentration at 0 minutes [1, 7] of 0 ng/mL. It also gave a concentration at 0.5 minutes [1, 7] of 0 ng/mL, a concentration at 5 minutes [1, 7] of 0 ng/mL and a concentration at 15 minutes [1, 7] of 24 ng/mL. For the same compound, the concentration at 30 minutes [1, 7] was 43 ng/mL, the concentration at 60 minutes [1, 7] was 59 ng/mL and the concentration at 120 minutes [1, 7] was 75 ng/mL. For the same compound, the concentration at 160 minutes [1, 7] was 54 ng/mL, the concentration at 240 minutes [1, 7] was 24 ng/mL and the concentration at 300 minutes [1, 7] was 20 ng/mL. For the same compound, the concentration at 360 minutes [1, 7] was 19 ng/mL, the concentration at 420 minutes [1, 7] was 16 ng/mL and the concentration at 480 minutes [1, 7] was 11 ng/mL. It also gave a concentration at 0 minutes [1, 8] of 0 ng/mL, a concentration at 0.5 minutes [1, 8] of 0 ng/mL and a concentration at 5 minutes [1, 8] of 0 ng/mL. The concentration at 15 minutes [1, 8] was 3 ng/mL, the concentration at 30 minutes [1, 8] was 13 ng/mL and the concentration at 60 minutes [1, 8] was 26 ng/mL. It also gave a concentration at 120 minutes [1, 8] of 38 ng/mL, a concentration at 160 minutes [1, 8] of 36 ng/mL and a concentration at 240 minutes [1, 8] of 51 ng/mL. The concentration at 300 minutes [1, 8] was 19 ng/mL, the concentration at 360 minutes [1, 8] was 17 ng/mL and the concentration at 420 minutes [1, 8] was 16 ng/mL. For the same compound, the concentration at 480 minutes [1, 8] was 16 ng/mL and the analgesic response [2] was “an analgesic response was observed”.
